In patent US20160113921A1, “COMBINATION THERAPY COMPRISING OXAZOLIDINONE-QUINOLONES FOR USE IN TREATING BACTERIAL INFECTIONS” (MORPHOCHEM AKTIENGESELLSCHAFT FÜR KOMBINATORISCHE CHEMIE, priority 2013, published 2016):
Where two headings read alike, the source gives them in different places.

Tests used:
Type in all cases: cell-based
E. cloacae ATCC 13047 [1] = assay: MIC, broth microdilution (CLSI), CAMHB; conditions: monosubstance; Ecl ATCC13047
Procedure: (§1) MIC-testing was done immediately after preparation of the dilutions. All tests were done in duplicate and repeated once on a separate occasion.
(§2) 1 mL of the bacterial suspension was transferred into a tube containing 10 mL CAMHB and was vortexed thoroughly. (S. pneumoniae 1 mL in 10 mL CAMHB+5% lysed horse blood). Columns 1-15 of the 96-well plate were inoculated with 5 μL of this suspension (1-15=antibacterial solution, 16=sterile medium without test item).
(§3) Turbidity was read visually with a mirror.

[2] = tested on: E. cloacae NRZ-00239 (VIM-1); assay: MIC, broth microdilution (CLSI), CAMHB; conditions: monosubstance; Ecl NRZ00239
Procedure: as §1, §2, §3

E. coli ATCC 25922 [3] = assay: MIC, broth microdilution (CLSI), CAMHB; conditions: monosubstance; Ec ATCC25922
Procedure: as §1, §2, §3

[4] = tested on: E. coli GNS-2601 (ESBL CTX-M-15); assay: MIC, broth microdilution (CLSI), CAMHB; conditions: monosubstance; Ec GNS2601
Procedure: as §1, §2, §3

[5] = tested on: E. coli NRZ-00302 (metallo β-lactamase NDM-1); assay: MIC, broth microdilution (CLSI), CAMHB; conditions: monosubstance; Ec NRZ00302
Procedure: as §1, §2, §3

[6] = tested on: E. coli NRZ-00401 (metallo β-lactamase VIM-1); assay: MIC, broth microdilution (CLSI), CAMHB; conditions: monosubstance; Ec NRZ00401
Procedure: as §1, §2, §3

K. pneumoniae ATCC 13883 = assay: MIC, broth microdilution (CLSI), CAMHB; conditions: monosubstance; Kp ATCC13883
Procedure: as §1, §2, §3

[7] = tested on: K. pneumoniae NRZ-00002 (OXA-48); assay: MIC, broth microdilution (CLSI), CAMHB; conditions: monosubstance; Kp NRZ00002
Procedure: as §1, §2, §3

[8] = tested on: K. pneumoniae NRZ-00103 (KPC-2); assay: MIC, broth microdilution (CLSI), CAMHB; conditions: monosubstance; Kp NRZ00103
Procedure: as §1, §2, §3

[9] = tested on: K. pneumoniae NRZ-00535 (VIM-1); assay: MIC, broth microdilution (CLSI), CAMHB; conditions: monosubstance; Kp NRZ00535
Procedure: as §1, §2, §3

P. aeruginosa ATCC 10145 = assay: MIC, broth microdilution (CLSI), CAMHB; conditions: monosubstance; Pa ATCC10145
Procedure: as §1, §2, §3

[10] = tested on: P. aeruginosa NRZ-00425 (VIM-1); assay: MIC, broth microdilution (CLSI), CAMHB; conditions: monosubstance; Pa NRZ00425
Procedure: as §1, §2, §3

P. mirabilis ATCC 9240 = assay: MIC, broth microdilution (CLSI), CAMHB; conditions: monosubstance; Pm ATCC9240
Procedure: as §1, §2, §3

[11] = tested on: P. mirabilis NRZ-00185 (AmpC, type CMY-2); assay: MIC, broth microdilution (CLSI), CAMHB; conditions: monosubstance; Pm NRZ00185
Procedure: as §1, §2, §3

E. coli ATCC 25922 [12] = assay: Time-kill curves; conditions: E. coli ATCC25922; for growth- and kill rates k ('+' = growth, unmarked = kill rate): first four hours
E. coli NRZ-00401 = assay: Time-kill curves; conditions: E. coli NRZ00401; for growth- and kill rates k ('+' = growth, unmarked = kill rate): first four hours
E. coli NRZ-00302 = assay: Time-kill curves; conditions: E. coli NRZ00302; for growth- and kill rates k ('+' = growth, unmarked = kill rate): first four hours
E. coli GNS-2601 = assay: Time-kill curves; conditions: E. coli GNS2601; for growth- and kill rates k ('+' = growth, unmarked = kill rate): first four hours
[13] = tested on: E. coli NRZ-00302 (NDM-1 β-lactamase); conditions: checkerboard
Text: (§4) The checkerboard consists of columns in which each well contains the same amount of antibacterial A being over i dilutions along the x-axis, and in rows in which each well contains the same amount of antibacterial B over j dilutions on the y-axis, i.e. serial dilutions of antibacterials A and B, respectively, are titrated in a rectangular fashion.
(§5) The fractional inhibitory concentration (FIC) is a mathematical expression of the effect of the combination of two antibacterial agents A and B. The FICs were calculated as the MIC of antibacterial A and antibacterial B in combination divided by the MIC of antibacterial A or antibacterial B alone.
(§6) The FICs and FIC index, respectively, are calculated according to the following equations:
(§7) FIC(A)=MIC(A in the presence of B)/MIC(A alone)
(§8) FIC(B)=MIC(B in the presence of A)/MIC(B alone)
(§9) The checkerboard titrations were performed three times.

[14] = tested on: K. pneumoniae NRZ-00535 (VIM-1 β-lactamase); conditions: checkerboard
Text: as §4, §5, §6, §7, §8, §9

[15] = tested on: P. aeruginosa NRZ-00425 (VIM-2 β-lactamase); assay: microbe, parasite or virus in culture; conditions: checkerboard
Text: as §4, §5, §6, §7, §8, §9

E. cloacae ATCC 13047 [16] = assay: Checkerboard titration of Compound 1 and colistin; conditions: checkerboard
Text: as §4, §5, §6, §7, §8, §9

[17] = tested on: E. cloacae NRZ-00239 (VIM-1 β-lactamase); assay: Checkerboard titration of Compound 1 and colistin
Text: as §4, §5, §6, §7, §8, §9

E. coli ATCC 25922 [18] = assay: Checkerboard titration of Compound 1 and colistin
Text: as §4, §5, §6, §7, §8, §9

[19] = tested on: E. coli ATCC 25922, NRZ-00401, NRZ-00302 and GNS-2601; assay: Time-kill curves, statements on the four E. coli strains; conditions: one- or two-times MIC; four E. coli strains

colistin
MIC (E. cloacae ATCC 13047 [1]): 64 µg/mL | MIC [2]: 0.5 µg/mL | MIC (E. coli ATCC 25922 [3]): 1 µg/mL | MIC [4]: 2 µg/mL | MIC [5]: 1 µg/mL | MIC [6]: 1 µg/mL | MIC (K. pneumoniae ATCC 13883): 0.03 µg/mL | MIC [7]: 0.25 µg/mL | MIC [8]: 0.25 µg/mL | MIC [9]: 0.25 µg/mL | MIC (P. aeruginosa ATCC 10145): 0.5 µg/mL | MIC [10]: 1 µg/mL | MIC (P. mirabilis ATCC 9240): >256 µg/mL | MIC [11]: >256 µg/mL | growth- and kill rates k ('+' = growth, unmarked = kill rate) (E. coli ATCC 25922 [12]; single agent at 1x its MIC): 0.86 h⁻¹ | growth- and kill rates k ('+' = growth, unmarked = kill rate) (E. coli ATCC 25922 [12]; single agent at 2x its MIC): 1.04 h⁻¹ | Viable counts at 8 h of exposure (E. coli ATCC 25922 [12]; single agent at 1x its MIC): 0 log10 CFU/mL | Viable counts at 8 h of exposure (E. coli ATCC 25922 [12]; single agent at 2x its MIC): 0 log10 CFU/mL | growth- and kill rates k ('+' = growth, unmarked = kill rate) (E. coli NRZ-00401; single agent at 1x its MIC): 2.46 h⁻¹ | growth- and kill rates k ('+' = growth, unmarked = kill rate) (E. coli NRZ-00401; single agent at 2x its MIC): 2.53 h⁻¹ | Viable counts at 8 h of exposure (E. coli NRZ-00401; single agent at 1x its MIC): 0 log10 CFU/mL | Viable counts at 8 h of exposure (E. coli NRZ-00401; single agent at 2x its MIC): 0 log10 CFU/mL | growth- and kill rates k ('+' = growth, unmarked = kill rate) (E. coli NRZ-00302; single agent at 1x its MIC): 1.63 h⁻¹ | growth- and kill rates k ('+' = growth, unmarked = kill rate) (E. coli NRZ-00302; single agent at 2x its MIC): 1.89 h⁻¹ | Viable counts at 8 h of exposure (E. coli NRZ-00302; single agent at 1x its MIC): 1.95 log10 CFU/mL | Viable counts at 8 h of exposure (E. coli NRZ-00302; single agent at 2x its MIC): 0 log10 CFU/mL | growth- and kill rates k ('+' = growth, unmarked = kill rate) (E. coli GNS-2601; single agent at 1x its MIC): 1.55 h⁻¹ | growth- and kill rates k ('+' = growth, unmarked = kill rate) (E. coli GNS-2601; single agent at 2x its MIC): 1.80 h⁻¹ | Viable counts at 8 h of exposure (E. coli GNS-2601; single agent at 1x its MIC): 0 log10 CFU/mL | Viable counts at 8 h of exposure (E. coli GNS-2601; single agent at 2x its MIC): 0 log10 CFU/mL | MIC (agent alone) [13]: 0.5 to 1 µg/mL | MIC (agent alone) [14]: 0.5 to 2 µg/mL | MIC (agent alone) [15]: 2 µg/mL | MIC (agent alone) (E. cloacae ATCC 13047 [16]): 256 µg/mL | MIC (agent alone) [17]: 1 µg/mL | MIC (agent alone) ([17]; listed as col): 0.5 to 1 µg/mL | MIC (agent alone) (E. coli ATCC 25922 [18]): 1 to 2 µg/mL | type of activity in time-kill [19]: bactericidal
